± gives the expanded uncertainty stated by the source.
Assay: mn = molality of the nth substance listed, in mol/kg
Details: 298.15 K, 101 kPa, Liquid

**Q.** With `CCCCCCCCCCCCOS(=O)(=O)[O-].[Na+]` [sodium dodecyl sulfate] + O as the compound, how does the mass density (m1 = 0.05) read?
**A.** The mass density was 999.133 ± 0.27 kg/m3 [middle of 5 runs].

**Q.** What about the mass density (m1 = 0.5) of the same compound?
**A.** Its mass density is 1014.57 ± 0.3 kg/m3 [middle of 5 runs].

**Q.** What about the mass density (m1 = 1) of the same compound?
**A.** The mass density was 1027.43 ± 0.33 kg/m3 [middle of 7 runs].

**Q.** With `CCCCCCCCCCCCCCCC[N+](C)(C)C.[Br-]` [N,N,N-trimethyl-1-hexadecanaminium bromide] + O as the compound, how does the mass density (m1 = 1) read?
**A.** The mass density was 1004.43 ± 0.46 kg/m3.
